Patent publication US8048825B2, “Haloalkylsulfonanilide derivatives or salt thereof, herbicide comprising the derivatives as active ingredient, and use of the herbicide” (Nihon Nohyaku Co., Ltd., priority 2006, dated 2011)

Key:
Format in all cases: in vivo
[1] = test system: Scirpus juncoides; experiment: Herbicidal efficacy on paddy field weeds of pre-emergence stage (Pre), Test Example 1; details: 1000 g/ha as active ingredient, examined after 21 days
Procedure, shortened: (§1)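 Pre-emergence paddy test: 1000 g/ha active ingredient, formulated and water-diluted, dropped onto 5 cm floodwater one day after sowing both weeds in clay loam. After 21 days in greenhouse, inhibition relative to untreated control rated on 0 (0%) to 5 (100%) scale.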

[2] = test system: Lindernia procumbens; experiment: as above; details: 1000 g/ha as active ingredient, examined after 21 days
Procedure, shortened: as §1

[3] = test system: Echinochloa crus-galli; experiment: Herbicidal effect on paddy field weeds of post-emergence stage (Post), Test Example 2; details: one-leaf stage, 1000 g/ha as active ingredient, examined after 21 days
Procedure, shortened: (§2)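 Post-emergence paddy test: formulated compound added to 5 cm standing water at 1000 g/ha a.i. when weeds reached one-leaf stage in clay loam pots in greenhouse. Growth inhibition rated 21 days later versus untreated control on a 0 (0%) to 5 (100%) scale.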

[4] = test system: Scirpus juncoides; experiment: as above; details: one-leaf stage, 1000 g/ha as active ingredient, examined after 21 days
Procedure, shortened: as §2

[5] = test system: Lindernia procumbens; experiment: as above; details: one-leaf stage, 1000 g/ha as active ingredient, examined after 21 days
Procedure, shortened: as §2

| SMILES | Scirpus juncoides pre (herbicidal effect) [1] | Lindernia procumbens pre (herbicidal effect) [2] | Echinochloa crus-galli post (herbicidal effect) [3] | Scirpus juncoides post (herbicidal effect) [4] | Lindernia procumbens post (herbicidal effect) [5] |
| --- | --- | --- | --- | --- | --- |
| CC(C)(C)C1(C)CCN(Cc2ccccc2NS(=O)(=O)C(F)(F)F)C(=O)O1 (stereo not shown) [Compound 1-327] | 5 (100% herbicidal effect, phytotoxicity) | 5 (100% herbicidal effect, phytotoxicity) | 4 (90%-99% herbicidal effect, phytotoxicity) | 4 (90%-99% herbicidal effect, phytotoxicity) | 5 (100% herbicidal effect, phytotoxicity) |
| CCCC1(CC)CCN(Cc2ccccc2N(C(=O)OCC)S(=O)(=O)C(F)(F)F)C(=O)O1 (racemic) [Compound 1-496] | 5 (100% herbicidal effect, phytotoxicity) | 5 (100% herbicidal effect, phytotoxicity) | 4 (90%-99% herbicidal effect, phytotoxicity) | 4 (90%-99% herbicidal effect, phytotoxicity) | 5 (100% herbicidal effect, phytotoxicity) |
| CCC1(C(F)(F)F)CCN(Cc2ccccc2N(C(=O)OC)S(=O)(=O)C(F)(F)F)C(=O)O1 (stereo not shown) [Compound 1-92] | 4 (90%-99% herbicidal effect, phytotoxicity) | 5 (100% herbicidal effect, phytotoxicity) | 4 (90%-99% herbicidal effect, phytotoxicity) | 4 (90%-99% herbicidal effect, phytotoxicity) | 5 (100% herbicidal effect, phytotoxicity) |
| CCC1(CC)CCN(Cc2ccccc2NS(=O)(=O)C(F)(F)F)C(=O)O1 [Compound 1-102] | 4 (90%-99% herbicidal effect, phytotoxicity) | 4 (90%-99% herbicidal effect, phytotoxicity) | 4 (90%-99% herbicidal effect, phytotoxicity) | 4 (90%-99% herbicidal effect, phytotoxicity) | 4 (90%-99% herbicidal effect, phytotoxicity) |
| CC(C)(C)COC(=O)N(c1ccccc1CN1CCC(C)(C)OC1=O)S(=O)(=O)C(F)(F)F [Compound 1-51] | 4 (90%-99% herbicidal effect, phytotoxicity) | 4 (90%-99% herbicidal effect, phytotoxicity) | 4 (90%-99% herbicidal effect, phytotoxicity) | 4 (90%-99% herbicidal effect, phytotoxicity) | 4 (90%-99% herbicidal effect, phytotoxicity) |
| CC(C)COC(=O)N(c1ccccc1CN1CCC(C)(C(F)(F)F)OC1=O)S(=O)(=O)C(F)(F)F (stereo not shown) [Compound 1-85] | 4 (90%-99% herbicidal effect, phytotoxicity) | 4 (90%-99% herbicidal effect, phytotoxicity) | 4 (90%-99% herbicidal effect, phytotoxicity) | 4 (90%-99% herbicidal effect, phytotoxicity) | – |
| CC1(C(F)(F)F)CCN(Cc2ccccc2NS(=O)(=O)C(F)(F)F)C(=O)O1 (stereo not shown) [Compound 1-80] | 4 (90%-99% herbicidal effect, phytotoxicity) | 4 (90%-99% herbicidal effect, phytotoxicity) | 4 (90%-99% herbicidal effect, phytotoxicity) | 4 (90%-99% herbicidal effect, phytotoxicity) | – |
| CCOC(=O)N(c1ccccc1CN1CCC(c2ccccc2)OC1=O)S(=O)(=O)C(F)(F)F (stereo not shown) [Compound 1-241] | – | 5 (100% herbicidal effect, phytotoxicity) | 4 (90%-99% herbicidal effect, phytotoxicity) | 4 (90%-99% herbicidal effect, phytotoxicity) | 5 (100% herbicidal effect, phytotoxicity) |
| CC(C)COC(=O)N(c1ccccc1CN1CCCCOC1=S)S(=O)(=O)C(F)(F)F [2-17] | 4 (90%-99% herbicidal effect, phytotoxicity) | – | 4 (90%-99% herbicidal effect, phytotoxicity) | 4 (90%-99% herbicidal effect, phytotoxicity) | – |
| CCOCN(c1ccccc1CN1CCC(c2ccccc2C(F)(F)F)OC1=O)S(=O)(=O)C(F)(F)F (stereo not shown) [Compound 1-303] | – | 5 (100% herbicidal effect, phytotoxicity) | 4 (90%-99% herbicidal effect, phytotoxicity) | 4 (90%-99% herbicidal effect, phytotoxicity) | 5 (100% herbicidal effect, phytotoxicity) |
| CCOCN(c1ccccc1CN1CCC(CC)(C(F)(F)F)OC1=O)S(=O)(=O)C(F)(F)F (stereo not shown) [Compound 1-100] | 4 (90%-99% herbicidal effect, phytotoxicity) | 5 (100% herbicidal effect, phytotoxicity) | 4 (90%-99% herbicidal effect, phytotoxicity) | – | 4 (90%-99% herbicidal effect, phytotoxicity) |
| CCOCN(c1ccccc1CN1CCC(c2ccccc2C)OC1=O)S(=O)(=O)C(F)(F)F (stereo not shown) [Compound 1-292] | – | 5 (100% herbicidal effect, phytotoxicity) | 4 (90%-99% herbicidal effect, phytotoxicity) | 4 (90%-99% herbicidal effect, phytotoxicity) | 5 (100% herbicidal effect, phytotoxicity) |
| O=S(=O)(Nc1ccccc1CN1CCCCOC1=S)C(F)(F)F [2-12] | 4 (90%-99% herbicidal effect, phytotoxicity) | 4 (90%-99% herbicidal effect, phytotoxicity) | 4 (90%-99% herbicidal effect, phytotoxicity) | 4 (90%-99% herbicidal effect, phytotoxicity) | – |
| CCOC(=O)N(c1ccccc1CN1CCC(C(F)(F)F)(C(F)(F)F)OC1=O)S(=O)(=O)C(F)(F)F [Compound 1-340] | 4 (90%-99% herbicidal effect, phytotoxicity) | 5 (100% herbicidal effect, phytotoxicity) | 4 (90%-99% herbicidal effect, phytotoxicity) | 4 (90%-99% herbicidal effect, phytotoxicity) | – |
| CCC1(C(F)(F)F)CCN(Cc2ccccc2N(C(=O)OCC(Cl)(Cl)Cl)S(=O)(=O)C(F)(F)F)C(=O)O1 (stereo not shown) [Compound 1-416] | 5 (100% herbicidal effect, phytotoxicity) | 5 (100% herbicidal effect, phytotoxicity) | 5 (100% herbicidal effect, phytotoxicity) | 4 (90%-99% herbicidal effect, phytotoxicity) | – |
| CC(C)COC(=O)N(c1ccccc1CN1CCC(c2ccccc2)(C2CC2)OC1=O)S(=O)(=O)C(F)(F)F (stereo not shown) [Compound 1-188] | 4 (90%-99% herbicidal effect, phytotoxicity) | 4 (90%-99% herbicidal effect, phytotoxicity) | 4 (90%-99% herbicidal effect, phytotoxicity) | 4 (90%-99% herbicidal effect, phytotoxicity) | – |
| COCN(c1ccccc1CN1CCC(c2ccccc2)(C2CC2)OC1=O)S(=O)(=O)C(F)(F)F (stereo not shown) [Compound 1-191] | – | 4 (90%-99% herbicidal effect, phytotoxicity) | 4 (90%-99% herbicidal effect, phytotoxicity) | – | – |
| CCCCC(CC)COC(=O)N(c1ccccc1CN1CCC2(CCCC2)OC1=O)S(=O)(=O)C(F)(F)F (stereo not shown) [Compound 1-144] | 4 (90%-99% herbicidal effect, phytotoxicity) | 4 (90%-99% herbicidal effect, phytotoxicity) | – | 4 (90%-99% herbicidal effect, phytotoxicity) | 4 (90%-99% herbicidal effect, phytotoxicity) |
| COC(=O)N(c1ccccc1CN1CCC(c2c(F)cccc2F)OC1=O)S(=O)(=O)C(F)(F)F (stereo not shown) [Compound 1-350] | 5 (100% herbicidal effect, phytotoxicity) | 5 (100% herbicidal effect, phytotoxicity) | – | 4 (90%-99% herbicidal effect, phytotoxicity) | 5 (100% herbicidal effect, phytotoxicity) |
| CN(c1ccccc1CN1CC(C)(C)C(c2ccccc2)OC1=O)S(=O)(=O)C(F)(F)F (stereo not shown) [Compound 1-268] | 4 (90%-99% herbicidal effect, phytotoxicity) | 5 (100% herbicidal effect, phytotoxicity) | – | 4 (90%-99% herbicidal effect, phytotoxicity) | 5 (100% herbicidal effect, phytotoxicity) |
